Experimental data as given in ChEMBL document CHEMBL5291721, “A preclinical secondary pharmacology resource illuminates target-adverse drug reaction associations of marketed drugs” (Nat Commun, 2023).

Key:
[1] = biological target: T1, Sodium-dependent noradrenaline transporter (Homo sapiens, UniProt P23975)
[2] = biological target: Prostaglandin G/H synthase 1 (Homo sapiens, UniProt P23219); format: functional
Adenosine receptor A1 = biological target: T2, Adenosine receptor A1 (Homo sapiens, UniProt P30542)
T2 sequence (P30542 whole entry): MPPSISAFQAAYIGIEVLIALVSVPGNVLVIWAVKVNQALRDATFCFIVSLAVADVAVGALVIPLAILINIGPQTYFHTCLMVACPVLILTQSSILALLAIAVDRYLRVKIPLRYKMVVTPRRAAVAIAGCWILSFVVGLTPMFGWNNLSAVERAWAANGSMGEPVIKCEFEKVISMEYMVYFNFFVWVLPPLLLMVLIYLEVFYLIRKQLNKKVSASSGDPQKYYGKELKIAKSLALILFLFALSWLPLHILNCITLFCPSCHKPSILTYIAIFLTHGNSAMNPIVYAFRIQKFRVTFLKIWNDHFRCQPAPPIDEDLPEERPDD

[3] = biological target: Gamma-aminobutyric acid receptor subunit alpha-1 (Rattus norvegicus, UniProt P62813)
Sequence of Gamma-aminobutyric acid receptor subunit alpha-1 (P62813 whole entry): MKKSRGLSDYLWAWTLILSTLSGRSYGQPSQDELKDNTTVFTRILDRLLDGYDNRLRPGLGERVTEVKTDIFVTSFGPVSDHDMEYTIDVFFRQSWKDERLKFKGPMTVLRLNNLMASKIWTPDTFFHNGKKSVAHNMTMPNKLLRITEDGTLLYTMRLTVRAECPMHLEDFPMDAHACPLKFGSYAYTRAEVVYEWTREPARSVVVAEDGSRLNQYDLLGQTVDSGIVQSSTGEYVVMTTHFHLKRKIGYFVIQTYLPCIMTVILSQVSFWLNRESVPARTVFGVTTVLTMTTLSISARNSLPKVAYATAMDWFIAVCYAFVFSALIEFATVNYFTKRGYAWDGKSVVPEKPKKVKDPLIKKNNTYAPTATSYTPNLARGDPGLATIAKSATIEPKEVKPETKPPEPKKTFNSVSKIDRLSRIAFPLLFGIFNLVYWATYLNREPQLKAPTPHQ

Melanocortin receptor 3 = Melanocortin receptor 3 (Homo sapiens, UniProt P41968)
Sequence of Melanocortin receptor 3 (P41968 whole entry): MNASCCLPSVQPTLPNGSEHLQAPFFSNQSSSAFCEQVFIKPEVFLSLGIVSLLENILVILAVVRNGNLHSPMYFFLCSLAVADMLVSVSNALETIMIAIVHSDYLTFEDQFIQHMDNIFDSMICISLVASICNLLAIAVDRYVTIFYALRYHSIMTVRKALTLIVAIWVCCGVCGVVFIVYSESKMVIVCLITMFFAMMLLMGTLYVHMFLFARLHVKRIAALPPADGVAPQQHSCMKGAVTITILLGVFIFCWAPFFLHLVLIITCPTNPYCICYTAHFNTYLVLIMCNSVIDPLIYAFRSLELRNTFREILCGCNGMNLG

[4] = biological target: Glutamate receptor ionotropic, NMDA 1 (Rattus norvegicus, UniProt P35439)
[5] = biological target: 5-hydroxytryptamine receptor 2A (Homo sapiens, UniProt P28223); format: functional, cell-based
Mu-type opioid receptor = Mu-type opioid receptor (Homo sapiens, UniProt P35372); experiment: biochemical; format: functional
Sequence of Mu-type opioid receptor (P35372 whole entry): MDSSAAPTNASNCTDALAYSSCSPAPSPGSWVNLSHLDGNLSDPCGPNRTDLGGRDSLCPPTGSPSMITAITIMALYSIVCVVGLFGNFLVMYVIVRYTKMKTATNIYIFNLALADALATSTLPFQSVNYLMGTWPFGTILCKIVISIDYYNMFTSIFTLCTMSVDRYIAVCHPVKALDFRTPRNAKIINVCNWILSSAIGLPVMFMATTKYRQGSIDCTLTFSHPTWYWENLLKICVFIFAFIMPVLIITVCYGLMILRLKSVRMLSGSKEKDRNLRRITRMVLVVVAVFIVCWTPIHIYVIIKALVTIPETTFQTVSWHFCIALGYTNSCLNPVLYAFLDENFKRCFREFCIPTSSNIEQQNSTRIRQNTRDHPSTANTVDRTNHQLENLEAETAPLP

[6] = biological target: T3, 5-hydroxytryptamine receptor 1A (Homo sapiens, UniProt P08908); format: functional, cell-based
T3 sequence (P08908 whole entry): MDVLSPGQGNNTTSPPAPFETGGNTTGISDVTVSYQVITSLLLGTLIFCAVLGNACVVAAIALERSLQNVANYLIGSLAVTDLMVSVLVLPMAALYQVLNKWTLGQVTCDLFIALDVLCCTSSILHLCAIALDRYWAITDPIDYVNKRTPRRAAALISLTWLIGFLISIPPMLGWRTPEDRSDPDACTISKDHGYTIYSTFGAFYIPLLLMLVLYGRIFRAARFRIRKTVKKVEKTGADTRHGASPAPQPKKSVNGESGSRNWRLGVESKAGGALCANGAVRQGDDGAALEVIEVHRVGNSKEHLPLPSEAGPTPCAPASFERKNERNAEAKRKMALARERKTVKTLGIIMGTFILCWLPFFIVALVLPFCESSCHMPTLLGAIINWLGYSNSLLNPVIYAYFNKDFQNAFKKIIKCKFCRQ

Vasopressin V1a receptor = Vasopressin V1a receptor (Homo sapiens, UniProt P37288)
Sequence of Vasopressin V1a receptor (P37288 whole entry): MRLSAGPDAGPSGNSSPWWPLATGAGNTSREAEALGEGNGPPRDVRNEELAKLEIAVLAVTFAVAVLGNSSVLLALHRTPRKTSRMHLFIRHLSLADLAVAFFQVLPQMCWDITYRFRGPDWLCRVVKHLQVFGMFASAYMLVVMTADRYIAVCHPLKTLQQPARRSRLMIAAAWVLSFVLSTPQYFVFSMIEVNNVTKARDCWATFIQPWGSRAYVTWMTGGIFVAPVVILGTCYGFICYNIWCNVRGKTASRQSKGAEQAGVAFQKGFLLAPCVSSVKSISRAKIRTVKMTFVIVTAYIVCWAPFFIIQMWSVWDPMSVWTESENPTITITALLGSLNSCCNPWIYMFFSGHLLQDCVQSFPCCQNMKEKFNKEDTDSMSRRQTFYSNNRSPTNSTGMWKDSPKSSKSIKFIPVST

Progesterone receptor [7] = biological target: T4, Progesterone receptor (Homo sapiens, UniProt P06401); format: functional
T4 sequence (P06401 whole entry): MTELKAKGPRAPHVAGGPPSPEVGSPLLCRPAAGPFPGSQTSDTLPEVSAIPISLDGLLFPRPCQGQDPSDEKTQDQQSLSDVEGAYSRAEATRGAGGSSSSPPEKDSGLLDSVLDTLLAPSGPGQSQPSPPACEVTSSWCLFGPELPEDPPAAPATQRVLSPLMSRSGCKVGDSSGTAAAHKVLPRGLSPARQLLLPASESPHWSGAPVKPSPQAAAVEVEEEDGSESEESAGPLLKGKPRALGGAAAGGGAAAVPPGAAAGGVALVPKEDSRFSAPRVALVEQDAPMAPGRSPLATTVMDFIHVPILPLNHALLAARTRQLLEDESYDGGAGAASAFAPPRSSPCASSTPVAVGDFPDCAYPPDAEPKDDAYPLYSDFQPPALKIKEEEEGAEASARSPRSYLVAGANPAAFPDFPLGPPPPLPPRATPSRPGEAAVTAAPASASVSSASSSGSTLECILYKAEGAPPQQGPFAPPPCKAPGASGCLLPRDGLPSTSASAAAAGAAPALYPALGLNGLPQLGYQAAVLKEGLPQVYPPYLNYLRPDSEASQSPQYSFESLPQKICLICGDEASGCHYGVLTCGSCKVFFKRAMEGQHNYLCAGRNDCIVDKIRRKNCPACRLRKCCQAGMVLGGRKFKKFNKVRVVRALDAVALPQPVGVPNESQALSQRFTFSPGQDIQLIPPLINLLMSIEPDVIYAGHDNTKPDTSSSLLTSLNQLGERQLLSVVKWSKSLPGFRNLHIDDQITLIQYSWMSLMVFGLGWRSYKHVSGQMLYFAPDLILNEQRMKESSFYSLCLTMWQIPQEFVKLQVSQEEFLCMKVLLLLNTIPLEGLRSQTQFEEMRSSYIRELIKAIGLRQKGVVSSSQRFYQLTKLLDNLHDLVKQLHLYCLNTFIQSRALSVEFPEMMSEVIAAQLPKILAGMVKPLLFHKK

[8] = biological target: T1, Sodium-dependent noradrenaline transporter; remark: listed apart in the source
[9] = biological target: Beta-1 adrenergic receptor (Homo sapiens, UniProt P08588); format: functional
Sequence of Beta-1 adrenergic receptor (P08588 whole entry): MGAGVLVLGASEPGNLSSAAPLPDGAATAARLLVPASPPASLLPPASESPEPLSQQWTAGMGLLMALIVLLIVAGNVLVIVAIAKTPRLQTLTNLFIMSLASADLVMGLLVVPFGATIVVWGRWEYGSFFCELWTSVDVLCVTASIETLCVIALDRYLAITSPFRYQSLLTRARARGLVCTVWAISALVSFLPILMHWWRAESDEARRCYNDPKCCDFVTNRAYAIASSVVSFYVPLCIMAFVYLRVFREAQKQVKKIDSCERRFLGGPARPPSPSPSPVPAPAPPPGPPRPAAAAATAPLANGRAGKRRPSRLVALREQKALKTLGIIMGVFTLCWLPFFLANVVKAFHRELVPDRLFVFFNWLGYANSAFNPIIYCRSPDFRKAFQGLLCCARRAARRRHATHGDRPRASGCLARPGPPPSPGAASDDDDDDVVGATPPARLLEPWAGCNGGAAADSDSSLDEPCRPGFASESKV

D(1A) dopamine receptor = D(1A) dopamine receptor (Homo sapiens, UniProt P21728); format: functional, cell-based
Sequence of D(1A) dopamine receptor (P21728 whole entry): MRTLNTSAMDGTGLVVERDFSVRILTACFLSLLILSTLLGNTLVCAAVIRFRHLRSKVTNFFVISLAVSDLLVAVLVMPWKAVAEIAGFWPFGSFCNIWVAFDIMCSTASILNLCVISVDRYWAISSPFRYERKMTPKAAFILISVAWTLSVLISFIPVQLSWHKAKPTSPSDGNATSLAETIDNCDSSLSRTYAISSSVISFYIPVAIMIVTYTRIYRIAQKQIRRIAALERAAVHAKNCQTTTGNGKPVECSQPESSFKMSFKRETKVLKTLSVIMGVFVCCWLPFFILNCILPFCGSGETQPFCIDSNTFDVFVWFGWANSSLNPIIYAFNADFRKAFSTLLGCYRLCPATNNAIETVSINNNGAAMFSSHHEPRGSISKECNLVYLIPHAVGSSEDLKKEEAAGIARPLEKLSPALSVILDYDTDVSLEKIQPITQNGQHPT

[10] = biological target: T5, Alpha-2B adrenergic receptor (Homo sapiens, UniProt P18089)
T5 sequence (P18089 whole entry): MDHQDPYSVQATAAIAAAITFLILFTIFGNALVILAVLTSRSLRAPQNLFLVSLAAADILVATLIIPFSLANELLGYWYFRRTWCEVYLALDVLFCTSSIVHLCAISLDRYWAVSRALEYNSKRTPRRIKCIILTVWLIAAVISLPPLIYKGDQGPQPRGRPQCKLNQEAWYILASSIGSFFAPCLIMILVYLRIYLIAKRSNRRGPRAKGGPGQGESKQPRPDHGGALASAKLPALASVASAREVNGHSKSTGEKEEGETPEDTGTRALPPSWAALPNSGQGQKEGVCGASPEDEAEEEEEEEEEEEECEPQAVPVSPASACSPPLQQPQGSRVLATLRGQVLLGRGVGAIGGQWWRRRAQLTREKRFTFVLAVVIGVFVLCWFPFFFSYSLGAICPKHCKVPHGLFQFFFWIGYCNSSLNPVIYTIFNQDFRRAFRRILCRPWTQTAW

Adenosine receptor A2a = Adenosine receptor A2a (Homo sapiens, UniProt P29274)
Sequence of Adenosine receptor A2a (P29274 whole entry): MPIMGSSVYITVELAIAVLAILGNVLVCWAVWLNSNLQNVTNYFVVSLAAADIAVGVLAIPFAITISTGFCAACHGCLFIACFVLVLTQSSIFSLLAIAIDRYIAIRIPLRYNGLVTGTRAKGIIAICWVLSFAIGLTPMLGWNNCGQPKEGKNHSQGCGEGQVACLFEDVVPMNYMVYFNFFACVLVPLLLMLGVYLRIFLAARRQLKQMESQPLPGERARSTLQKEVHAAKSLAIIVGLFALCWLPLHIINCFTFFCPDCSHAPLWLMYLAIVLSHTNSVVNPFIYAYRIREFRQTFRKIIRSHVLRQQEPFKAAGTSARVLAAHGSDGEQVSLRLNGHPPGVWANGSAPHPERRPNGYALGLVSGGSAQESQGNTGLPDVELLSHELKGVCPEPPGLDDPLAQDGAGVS

Progesterone receptor [11] = biological target: T4, Progesterone receptor; format: functional; remark: listed apart in the source
[12] = biological target: Neuronal acetylcholine receptor subunit alpha-4 (Homo sapiens, UniProt P43681)
Sequence of Neuronal acetylcholine receptor subunit alpha-4 (P43681 whole entry): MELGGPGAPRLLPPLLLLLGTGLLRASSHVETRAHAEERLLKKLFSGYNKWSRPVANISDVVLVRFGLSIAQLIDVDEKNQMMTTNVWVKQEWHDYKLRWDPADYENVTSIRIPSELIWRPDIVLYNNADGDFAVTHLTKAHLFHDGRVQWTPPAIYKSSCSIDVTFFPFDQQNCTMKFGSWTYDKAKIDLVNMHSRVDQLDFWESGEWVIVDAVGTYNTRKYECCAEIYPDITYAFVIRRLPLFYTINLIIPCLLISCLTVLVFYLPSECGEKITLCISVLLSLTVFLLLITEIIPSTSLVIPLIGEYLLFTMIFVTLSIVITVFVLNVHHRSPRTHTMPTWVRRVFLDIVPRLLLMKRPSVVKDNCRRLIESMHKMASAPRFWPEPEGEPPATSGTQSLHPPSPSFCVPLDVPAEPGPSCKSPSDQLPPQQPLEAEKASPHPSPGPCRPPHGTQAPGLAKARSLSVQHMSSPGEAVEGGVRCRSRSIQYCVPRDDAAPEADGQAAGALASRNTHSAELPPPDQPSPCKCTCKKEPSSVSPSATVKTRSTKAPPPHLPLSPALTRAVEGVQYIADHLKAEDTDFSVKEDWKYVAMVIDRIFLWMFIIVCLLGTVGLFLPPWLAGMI
Also: assay procedure not described here.

T1 sequence (P23975 whole entry): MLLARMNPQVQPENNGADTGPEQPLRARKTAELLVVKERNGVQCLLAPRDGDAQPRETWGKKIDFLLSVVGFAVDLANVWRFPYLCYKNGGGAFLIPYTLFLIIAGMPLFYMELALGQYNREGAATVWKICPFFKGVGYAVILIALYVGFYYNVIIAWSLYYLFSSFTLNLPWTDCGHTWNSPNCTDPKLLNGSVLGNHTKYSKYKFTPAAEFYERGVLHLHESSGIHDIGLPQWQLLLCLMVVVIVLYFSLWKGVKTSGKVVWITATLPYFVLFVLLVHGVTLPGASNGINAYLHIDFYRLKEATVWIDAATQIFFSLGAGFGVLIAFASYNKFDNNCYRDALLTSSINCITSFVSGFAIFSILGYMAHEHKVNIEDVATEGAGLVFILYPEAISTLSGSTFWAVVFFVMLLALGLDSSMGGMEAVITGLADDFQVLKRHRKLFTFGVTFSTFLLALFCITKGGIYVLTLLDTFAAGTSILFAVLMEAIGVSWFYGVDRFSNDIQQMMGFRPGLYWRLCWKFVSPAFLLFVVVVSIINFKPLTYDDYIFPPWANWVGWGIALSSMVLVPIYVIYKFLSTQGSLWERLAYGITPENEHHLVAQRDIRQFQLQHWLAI
Sequence of Prostaglandin G/H synthase 1 (P23219 whole entry): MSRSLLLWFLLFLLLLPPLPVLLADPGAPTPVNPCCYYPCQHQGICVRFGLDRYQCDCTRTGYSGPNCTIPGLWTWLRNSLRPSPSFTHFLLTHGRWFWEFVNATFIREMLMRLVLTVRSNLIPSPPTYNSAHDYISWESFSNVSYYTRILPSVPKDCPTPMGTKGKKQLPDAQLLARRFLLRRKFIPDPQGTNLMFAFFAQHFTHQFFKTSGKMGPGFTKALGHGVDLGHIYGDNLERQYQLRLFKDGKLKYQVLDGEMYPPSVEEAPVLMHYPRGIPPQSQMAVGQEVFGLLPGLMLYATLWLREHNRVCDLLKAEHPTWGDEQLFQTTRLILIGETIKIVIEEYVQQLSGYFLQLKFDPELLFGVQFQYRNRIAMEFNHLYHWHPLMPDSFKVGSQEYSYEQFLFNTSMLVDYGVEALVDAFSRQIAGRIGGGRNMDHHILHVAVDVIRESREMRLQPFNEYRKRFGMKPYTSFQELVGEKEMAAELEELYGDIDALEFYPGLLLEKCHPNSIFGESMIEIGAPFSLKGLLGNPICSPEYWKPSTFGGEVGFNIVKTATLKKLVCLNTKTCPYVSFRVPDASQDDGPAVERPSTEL

`CN(C)c1ccc(C(=C2C=CC(=[N+](C)C)C=C2)c2ccc(N(C)C)cc2)cc1` [GENTIAN VIOLET] showed an AC50 [1] of 4.7 µM and an AC50 [2] of 11.8 µM.
`Nc1ccc(S(N)(=O)=O)cc1` [SULFANILAMIDE] showed an AC50 (Adenosine receptor A1) of over 30 µM and an AC50 [3] of over 30 µM.
HYDROXOCOBALAMIN was tested, and the AC50 (Melanocortin receptor 3) was over 30 µM, the AC50 [4] was over 30 µM and the AC50 [5] was over 30 µM. It also gave an AC50 (Mu-type opioid receptor) of over 30 µM, an AC50 [6] of over 30 µM and an AC50 (Vasopressin V1a receptor) of over 30 µM. The AC50 (Progesterone receptor [7]) was over 30 µM, the AC50 [8] was over 30 µM and the AC50 [9] was over 30 µM. It also gave an AC50 (D(1A) dopamine receptor) of over 30 µM, an AC50 [10] of over 30 µM and an AC50 (Adenosine receptor A2a) of over 30 µM. It also gave an AC50 (Progesterone receptor [11]) of over 30 µM and an AC50 [12] of over 30 µM.
